{"source": "patent US7211589B2", "about": "“Atisane compounds and use thereof” (Eisai R&D Management Co., Ltd., priority 2001, dated 2007)", "key": {"[1]": {"test_system": "cultured cerebral cortex cells", "test": "Effect on glutamate-induced neurotoxicity of cultured cerebral cortex cell (trypan blue survival)", "format": "cell-based", "details": "test substance 10 μM, 1 h pre-incubation, then glutamic acid 500 μM for 1 h; percentage of living (trypan blue unstained) cells; sham 88.79, glutamic acid alone 26.72", "experimental": "Effect of Atisane Derivative on Glutamate-induced Neurotoxicity of Cultured Cerebral Cortex Cell\nEffects of the compounds according to the present invention on survival of cells were studied in the following manners.\n(1) After dissolving the compound according to the present invention (test compound) in a small amount of methanol, 2.0 mL serum-free normal medium (Eagle's MEM medium raw powder 9.4 g; NaHCO3 2.0 g; L-glutamine 0.29 g; glucose 1.0 g; and HEPES 2.38 g are dissolved in purified water so that the final volume is 1000 mL) was added so as to make the concentration at 10 μM. After mixing well by vortex, the sample was used for the following bioassay. (2) In Eagle liquid at 37° C., cultured cerebral cortex cells were incubated in the medium containing the test sample (1) for 1 hour, and glutamic acid was added to the medium. After incubating for another 1 hour, the culture was stained with 1.5% trypan blue solution for 10 minutes. […] Using this property, in the present test, the number of cells were counted while determining the cells not having stained by trypan blue as living cells and the cells […] as dead cells. […] More than 200 cells were counted per one cover slip, and a percentage of number of living cells with respect to the total number of counted cells was calculated as survival. […]"}, "[2]": {"test_system": "cultured cerebral cortex cells", "test": "Effect on nitrogen monoxide (NO)-induced neurotoxicity of cultured cerebral cortex cell (trypan blue survival)", "format": "cell-based", "details": "test substance 10 μM simultaneously with S-nitrosocysteine 100 μM; percentage of living cells; sham 91.92, S-nitrosocysteine alone 17.30", "experimental": "Effect of Atisane Derivative on Nitrogen Monoxide (NO)-induced Neurotoxicity of Cultured Cerebral Cortex Cell\n(1) After dissolving the compound according to the present invention (test compound) in a small amount of methanol, 2.0 mL serum-free normal medium (Eagle's MEM medium raw powder 9.4 g; NaHCO3 2.0 g; […]; glucose 1.0 g; and HEPES 2.38 g are dissolved in purified water so that the final volume is 1000 mL) was added to make the concentration at 10 μM. After mixing well by vortex, the sample was used for the following bioassay. (2) In Eagle liquid at 37° C., cultured cerebral cortex cells were incubated in the medium containing S-nitrosocysteine for 1 hour. At this time, the test sample (1) was treated simultaneously with S-nitrosocysteine. After incubating for another 1 hour, the culture was stained with 1.5% trypan blue solution for 10 minutes. After completion of the staining, cells were fixed in ice-cooled 10% neutral-buffered formalin solution, rinsed with saline, and numbers of living cells and dead cells were counted. The test was conducted using 5 cover slips for every drug treatment, and one group contained 5 cases. More than 200 cells were counted per one cover slip, and a percentage of number of living cells with respect to the total number of counted cells was calculated as survival. (3) Results"}}, "data": [{"smiles": "C[S+]([O-])C[C@H]1[C@H]2CC[C@@]3(CC[C@H]4[C@@](C)(CCC[C@@]4(C)C(=O)O)[C@@H]3C2)[C@@H]1O", "note": "(mixture of isomers) [Serofendic acid isomers (1), (2) (approx. 1:2) mixture, ent-15β-Hydroxy-17-methylsulfinyl-16α-atisane-19-oic acid]", "values": [{"measurement": "Survival of cell", "setting": "[1]", "value": 65.92, "unit": "%"}, {"measurement": "Survival of cell", "setting": "[2]", "value": 76.02, "unit": "%"}]}]}
